The values below come from US10604509B2, “Nrf2 regulators” (GlaxoSmithKline Intellectual Property Development Limited, priority 2015, dated 2020).

Counter-ions that a name gives are not always drawn. A value given as a limit tells only on which side of the number the result lay.

In the first test the test system is rats.
Assay: not given
As to conditions: rats on a choline-deficient L-amino acid-defined diet; cited from earlier work.
For `O=C(NCc1ccccn1)Nc1nnc(-c2ccco2)o1` [NK-252], the “progression of histologic abnormalities, especially hepatic fibrosis” value is “significantly attenuated progression of histologic abnormalities”.

Regarding `Cc1c(-c2cnccn2)ssc1=S` [oltipraz], the “progression of histologic abnormalities, especially hepatic fibrosis” value is listed as “significantly attenuated progression of histologic abnormalities”.

For another test, the system named is NQO1 specific enzyme activity in BEAS-2B cells. Kind of test: BEAS-2B NQO1 MTT assay. The test is classed as cell-based. As to conditions: BEAS-2B cells, 48 hours with compound, MTT readout; read-out: EC50 of NQO1 specific activity induction. The gist of the method:
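NQO1 specific activity, an NRF2 activation marker, read kinetically as absorbance change at 570 nm for 30 min after MTT cocktail addition to crude lysates of BEAS-2B cells exposed 48 h to compound. Three-parameter fit of Delta OD/min against log concentration gives EC50; lysate portion used for Cell Titer Glo.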
The term EC50 denotes the midpoint of the concentration-response curve. For “(S)-3-(1,4-Dimethyl-1H- benzo[d][1,2,3]triazol-5- yl)-3-(3-(((R)-2-ethyl-9- fluoro-2,3- dihydrobenzo[f][1,4]oxa- zepin-4(5H)-yl)methyl)-4- methylphenyl)-2,2- dimethylpropanoic acid, trifluoroacetic acid salt [Example 25]”, the concentration giving a half-maximal response (EC50) was below 1 nM.

Staying with this test, now noted: Homo sapiens, BEAS-2B, 48 h, BEAS-2B cells, 48 hours with compound, MTT readout; read-out: EC50 of NQO1 specific activity induction.
Regarding `CCC1(C)CN(Cc2cc([C@@H](c3ccc4c(nnn4C)c3C)C(C)(C)C(=O)O)ccc2C)Cc2ccccc2O1` (stereo partly drawn) [Example 240, (3S)-3-(1,4-Dimethyl-1H-benzo[d][1,2,3]triazol-5-yl)-3-(3-((2-ethyl-2-methyl-2,3-dihydrobenzo[f][1,4]oxazepin-4(5H)-yl)methyl)-4-methylphenyl)-2,2-dimethylpropanoic Acid], the EC50 lay in the range of 1 to 10 nM.

On to `Cc1ccc(C(CC(=O)O)c2ccc3c(nnn3C)c2C)cc1CN1Cc2ccccc2OC2(CC2)C1` (stereo not shown) [Example 243, 3-(3-((3H-Spiro[benzo[f][1,4]oxazepine-2,1′-cyclopropan]-4(5H)-yl)methyl)-4-methylphenyl)-3-(1,4-dimethyl-1H-benzo[d][1,2,3]triazol-5-yl)propanoic Acid], for which the EC50 lay in the range of 100 to 1000 nM.

Turning to `Cc1ccc(C(CC(=O)O)c2ccc3c(nnn3C)c2C)cc1CN1Cc2ccccc2OC2(CCC2)C1` (stereo not shown) [Example 244, 3-(3-((3H-Spiro[benzo[f][1,4]oxazepine-2,1′-cyclobutan]-4(5H)-yl)methyl)-4-methylphenyl)-3-(1,4-dimethyl-1H-benzo[d][1,2,3]triazol-5-yl)propanoic Acid], the EC50 lay in the range of 10 to 100 nM.

Consider `Cc1ccc(C(c2ccc3c(nnn3C)c2C)C(C)(C)C(=O)O)cc1Cn1ccnc1CC1CCCOCC1` (stereo not shown) [Example 245, 3-(1,4-Dimethyl-1H-benzo[d][1,2,3]triazol-5-yl)-2,2-dimethyl-3-(4-methyl-3-((2-(oxepan-4-ylmethyl)-1H-imidazol-1-yl)methyl)phenyl)propanoic Acid], for which the EC50 lay in the range of 10 to 100 nM.

As to `CCC1CN(Cc2cc(C(c3ccc4c(nnn4C)c3C)C(C)(C)C(=O)O)ccc2C)CCC(C2CC2)O1` (stereo not shown) [Example 246, 3-(3-((7-Cyclopropyl-2-ethyl-1,4-oxazepan-4-yl)methyl)-4-methylphenyl)-3-(1,4-dimethyl-1H-benzo[d][1,2,3]triazol-5-yl)-2,2-dimethylpropanoic Acid], the EC50 fell in the range of 100 to 1000 nM.

Consider `CC[C@@H]1CN(Cc2cc([C@@H](c3ccc4c(nnn4C)c3C)C(C)(C)C(=O)OCOC(=O)C(C)(C)C)ccc2C)Cc2cnccc2O1` [Example 253, (S)-(Pivaloyloxy)methyl 3-(1,4-dimethyl-1H-benzo[d][1,2,3]triazol-5-yl)-3-(3-(((R)-2-ethyl-2,3-dihydropyrido[3,4-f][1,4]oxazepin-4(5H)-yl)methyl)-4-methylphenyl)-2,2-dimethylpropanoate], for which the concentration giving a half-maximal response (EC50) is below 1 nM.

Regarding `CC[C@@H]1CN(Cc2cc([C@@H](c3ccc4c(nnn4C)c3C)C(C)(C)C(=O)N3CCSC3=O)ccc2C)Cc2cnccc2O1` [Example 256, 3-((S)-3-(1,4-Dimethyl-1H-benzo[d][1,2,3]triazol-5-yl)-3-(3-(((R)-2-ethyl-2,3-dihydropyrido[3,4-f][1,4]oxazepin-4(5H)-yl)methyl)-4-methylphenyl)-2,2-dimethylpropanoyl)thiazolidin-2-one, Trifluoroacetic Acid Salt], the EC50 was in the range of 10 to 100 nM.

In the case of `CCOC(=O)C(C)(C)[C@@H](c1ccc(C)c(CN2Cc3cnccc3O[C@H](CC)C2)c1)c1ccc2c(nnn2C)c1C` [Example 257, (S)-ethyl 3-(1,4-dimethyl-1H-benzo[d][1,2,3]triazol-5-yl)-3-(3-(((R)-2-ethyl-2,3-dihydropyrido[3,4-f][1,4]oxazepin-4(5H)-yl)methyl)-4-methylphenyl)-2,2-dimethylpropanoate], the EC50 was 100 to 1000 nM.

On to `CC[C@@H]1CN(Cc2cc([C@H](CC(=O)O)c3ccc4c(nnn4C)c3C)ccc2C)Cc2ccncc2O1` [Example 259, (S)-3-(1,4-dimethyl-1H-benzo[d][1,2,3]triazol-5-yl)-3-(3-(((R)-2-ethyl-2,3-dihydropyrido[4,3-f][1,4]oxazepin-4(5H)-yl)methyl)-4-methylphenyl)propanoic acid], for which the EC50 is 100 to 1000 nM.

`CC[C@@H]1CN(Cc2cc([C@H](CC(=O)O)c3ccc4c(nnn4C)c3C)ccc2F)Cc2ccncc2O1` [Example 260, (S)-3-(1,4-dimethyl-1H-benzo[d][1,2,3]triazol-5-yl)-3-(3-(((R)-2-ethyl-2,3-dihydropyrido[4,3-f][1,4]oxazepin-4(5H)-yl)methyl)-4-fluorophenyl)propanoic acid]: the EC50 lay in the range of 100 to 1000 nM.

For the compound `CC[C@@H]1CN(Cc2cc([C@H](CC(=O)O)c3ccc4c(nnn4C)c3C)ccc2Cl)Cc2ncccc2O1` [Example 263, (S)-3-(4-chloro-3-(((R)-2-ethyl-2,3-dihydropyrido[2,3-f][1,4]oxazepin-4(5H)-yl)methyl)phenyl)-3-(1,4-dimethyl-1H-benzo[d][1,2,3]triazol-5-yl)propanoic acid], the EC50 lay within 10 to 100 nM.

Consider `Cc1ccc([C@H](CC(=O)O)c2ccc3c(nnn3C)c2C)cc1CN1Cc2ccncc2OC(C)(C)C1` [Example 264, (S)-3-(1,4-dimethyl-1H-benzo[d][1,2,3]triazol-5-yl)-3-(3-((2,2-dimethyl-2,3-dihydropyrido[4,3-f][1,4]oxazepin-4(5H)-yl)methyl)-4-methylphenyl)propanoic acid], for which the concentration giving a half-maximal response (EC50) is 1000 to 10000 nM.

Regarding `CCC1CN(Cc2cc(C(CC(=O)O)c3cc(OC)c4c(c3)nnn4C)ccc2C)Cc2ccccc2O1` (stereo not shown) [compound 46], the EC50 was in the range of 100 to 1000 nM.

On to `CCC1Cc2ccc(F)cc2CN(Cc2cc(C(CC(=O)O)c3ccc4c(nnn4C)c3C)ccc2C)C1` (stereo not shown) [compound 107, 3-(1,4-dimethyl-1H-benzo[d][1,2,3]triazol-5-yl)-3-(3-((4-ethyl-8-fluoro-4,5-dihydro-1H-benzo[c]azepin-2(3H)-yl)methyl)-4-methylphenyl)propanoic acid], for which the half-maximal effective concentration (EC50) was 10 to 100 nM.

In the case of `Cc1ccc([C@@H](c2ccc3c(nnn3C)c2C)C(C)(C)C(=O)O)cc1CN1CCC[C@@H](n2cccn2)C1` [compound 184, (S)-3-(3-(((R)-3-(1H-Pyrazol-1-yl)piperidin-1-yl)methyl)-4-methylphenyl)-3-(1,4-dimethyl-1H-benzo[d][1,2,3]triazol-5-yl)-2,2-dimethylpropanoic acid], the EC50 was 100 to 1000 nM.

With `Cc1ccc(C(CC(=O)O)c2ccc3c(nnn3C)c2C)cc1CN1CCCC(S(=O)(=O)C2CCCCC2)C1` (stereo not shown) [compound 186, 3-(3-((3-(Cyclohexylsulfonyl)piperidin-1-yl)methyl)-4-methylphenyl)-3-(1,4-dimethyl-1H-benzo[d][1,2,3]triazol-5-yl)propanoic acid], the EC50 fell in the range of 100 to 1000 nM.

The test is the same for the next values; noted with them: Homo sapiens; BEAS-2B cells, 48 hours with compound, MTT readout; read-out: EC50 of NQO1 specific activity induction.
Regarding `CC[C@@H]1CN(Cc2cc([C@@H](c3ccc4c(nnn4C)c3C)C(C)(C)C(=O)OCOP(=O)(O)Oc3ccccc3)ccc2C)Cc2cnccc2O1` [Example 254], the half-maximal effective concentration (EC50) lay within 1 to 10 nM.

As for `CC[C@@H]1CN(Cc2cc([C@H](CC(=O)O)c3ccc4c(nnn4C)c3C)ccc2C)Cc2ncccc2O1` [Example 258, (S)-3-(1,4-dimethyl-1H-benzo[d][1,2,3]triazol-5-yl)-3-(3-(((R)-2-ethyl-2.3-dihydropyrido[2,3-f][1,4]oxazepin-4(5H)-yl)methyl)-4-methylphenyl)propionic Acid], the EC50 was in the range of 10 to 100 nM.

The next test has as its system mice.
Assay: not given
Particulars: NRF2 wild-type and KO mice after administration; cited from earlier work.
On to `CC(C)(C)c1cc(O)ccc1O` [tert-butylhydroquinone (tBHQ), tert-butylhydroquinone], for which the cortical glutathione levels entry is reported as “increased in NRF2 wild-type but not KO mice”.

The subject of a further test is rats.
Assay: not given
Particulars: cerebral ischemia-reperfusion model; cited from earlier work.
As to `CC(C)(C)c1cc(O)ccc1O` [tert-butylhydroquinone (tBHQ), tert-butylhydroquinone], the cortical damage result is listed as “reduced cortical damage”.

A further test relates to COPD macrophages and alveolar macrophages from cigarette smoke-exposed mice.
Assay: not given
Particulars: COPD macrophages and alveolar macrophages from cigarette smoke-exposed mice; cited from earlier work.
As for `C[S+]([O-])CCCCN=C=S` (stereo not shown) [Sulforaphane], the “expression of Macrophage Receptor with Collagenous structure (MARCO)” value is listed as “increases the expression of Macrophage Receptor with Collagenous structure (MARCO)”.

Staying with this test, now noted: Pseudomonas aeruginosa, non-typable Haemophilus influenzae; ex vivo and in vivo; cited from earlier work.
On to `C[S+]([O-])CCCCN=C=S` (stereo not shown) [Sulforaphane], for which the “bacterial phagocytosis and bacterial clearance” value was “improving in these cells bacterial phagocytosis”.
